Assay [1] has as its system poly(A)2poly(U) (RNA triple helix) (RNA, polymer) A/U. As to the kind of experiment: absorbance titration. To be noted: Na+ (NaCl 0.1 M); NaCac 2.5 mM, pH 7.0.
The subject of assay [2] is poly(A)poly(U) (RNA, polymer) A/U. As to the kind of experiment: absorbance titration. Conditions: Na+ (NaCl 0.1 M), NaCac 2.5 mM.
The subject of the next assay is poly(A) (RNA, polymer) A. As to the kind of experiment: absorbance titration. Conditions: Na+ (NaCl 0.1 M), NaCac 2.5 mM, pH 7.0.
The subject of assay [3] is Tel-23 (DNA telomeric G4) (DNA, G4) TAGGGTTAGGGTTAGGGTTAGGG
As to the kind of experiment: absorbance titration.

Assay [4] addresses T1, bovine serum albumin (BSA) (Bos taurus, UniProt P02769).
T1 construct: gene ALB
Put plainly: BSA intrinsic fluorescence quenching titration ([…] °C), […] model; no adduct by ESI-MS. The class given is binding.

Each structure is given as a SMILES string.

T1 sequence (P02769 25-607): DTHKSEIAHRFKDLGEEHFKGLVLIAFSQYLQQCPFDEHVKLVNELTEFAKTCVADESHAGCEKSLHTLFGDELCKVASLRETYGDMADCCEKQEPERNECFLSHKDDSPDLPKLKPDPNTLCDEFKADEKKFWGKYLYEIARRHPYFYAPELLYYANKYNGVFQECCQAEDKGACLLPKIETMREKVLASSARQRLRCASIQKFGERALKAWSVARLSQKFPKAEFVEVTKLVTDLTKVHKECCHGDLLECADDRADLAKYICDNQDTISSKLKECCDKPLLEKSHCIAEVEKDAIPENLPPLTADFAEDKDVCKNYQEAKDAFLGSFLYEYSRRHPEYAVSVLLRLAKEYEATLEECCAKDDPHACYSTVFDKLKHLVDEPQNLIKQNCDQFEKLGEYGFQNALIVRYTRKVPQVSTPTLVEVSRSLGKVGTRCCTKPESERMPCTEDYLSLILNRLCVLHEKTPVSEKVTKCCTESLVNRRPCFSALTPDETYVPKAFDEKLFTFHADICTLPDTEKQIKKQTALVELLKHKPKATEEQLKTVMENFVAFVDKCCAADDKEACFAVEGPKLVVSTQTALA

As to `CCN1[C]N(Cc2c3ccccc3cc3ccccc23)C=C1.CCN1[C]N(Cc2c3ccccc3cc3ccccc23)C=C1.[Ag+]`, the binding result in assay [1] is “no”; in the assay on poly(A) (RNA, polymer) A it was “no”; in assay [3] (very slight spectral variations, conclusions state no interaction), “weak”. In assay [2] (pH 7.0, 25.0 °C, apparent, per base pair, per base), the “Kpoly(A)poly(U)” value is listed as “(1.5 ± 3) × 10^3 M^-1”.

Consider `CCn1ccn(Cc2c3ccccc3cc3ccccc23)[c]1=[Ag]([Cl])=[c]1n(CC)ccn1Cc1c2ccccc2cc2ccccc12` [[Ag(EIA)2]Cl, bis(1-(anthracen-9-ylmethyl)-3-ethylimidazol-2-ylidene) silver chloride], for which the “BSA intrinsic fluorescence quenching titration (15-50 °C), 1:1 model; no adduct” value in assay [4] is “the silver complex interacts with the protein but with a reversible weak process based on electrostatics”.

In the case of `CCN1[C]N(Cc2c3ccccc3cc3ccccc23)C=C1.CCN1[C]N(Cc2c3ccccc3cc3ccccc23)C=C1.[Au+]`, the binding result in assay [2] (pH 7.0, external binding, fit not converging) is on record as “yes”; in the assay with poly(A) (RNA, polymer) A (external binding, fit not converging), “yes”; in assay [3] (unselective outer binding, fit not converging), “yes”.

Source of the values: publication PMC7699860 (Molecules, 2020).
